Results as given in US9884863B2, “STAT3 inhibitor” (Board of Regents, The University of Texas System, priority 2013, dated 2018).
Read-outs that look alike come from different tables or passages of the source.

How the values were obtained:
Panc-1 = test: MTS cell proliferation assay, Panc-1; format: cell-based, human; conditions: Homo sapiens
Protocol: (§1) Cancer cells (breast cancer cell lines MCF-7, MDA-MB-361, SKBR3 and MDA-MB-231, pancreatic cancer cell lines AsPC-1. BxPC3 and Panc-1) were seeded in 96-well plates at a density of 1000-2000 cells/well and treated with DMSO, 0.01, 0.1, 1, 5, 10, and 100 mM of STAT3 individual inhibitors for 72 hrs. Proliferation was measured by treating cells with the 3-(4,5-dimethylthiazol-2-yl)-5-(3-carboxymethoxyphenyl)-2-(4-sulfophenyl)-2H-tetrazolium) (MTS) in a CellTiter 96t AQueous Non-Radioactive Cell Proliferation Assay kit from Promega, Madison, Wis., USA). Absorbance of all wells was determined by measuring OD at 550 nm after 1 hr incubation at 37° C. on a 96-well iMark™ Microplate Absorbance Reader (BioRad, Hercules, Calif.). Each individual compound was tested in quadruplicate wells for each concentration, and the results were reported as mean absorption±s.e.
(§2) In Vitro Determination of Effects of Synthesized Compounds on Cancer Cell Proliferation. Cancer cells (breast cancer cell lines MCF-7 and MDA-MB-231, pancreatic cancer cell lines AsPC-1 and Panc-1) were seeded in 96-well plates at a density of 2×10^3 cells/well and treated with DMSO, 0.01, 0.1, 1, 5, 10, and 100 μM of individual STAT3 inhibitors for 72 h. Proliferation was measured by treating cells with the 3-(4,5-dimethylthiazol-2-yl)-5-(3-carboxymethoxyphenyl)-2-(4-sulfophenyl)-2H-tetrazolium) (MTS) in a CellTiter 96t Aqueous Non-Radioactive Cell Proliferation Assay kit (Promega, Madison, Wis., USA). Absorbance of all wells was determined by measuring OD at 550 nm after 1 h incubation at 37° C. on a 96-well iMark™ Microplate Absorbance Reader (BioRad, Hercules, Calif.). Each individual compound was tested in quadruplicate wells for each concentration.

AsPC1 = test: MTS cell proliferation assay, AsPC1; format: cell-based, human; conditions: Homo sapiens
Protocol: as §1, §2

MCF-7 = test: MTS cell proliferation assay, MCF-7; format: cell-based, human
Protocol: as §1, with “BxPC3 and Panc-1) were seeded in 96-well plates at a density of 1000-2000 cells/well and treated with DMSO, 0.01, 0.1, 1, 5, 10, and 100 mM of STAT3 individual inhibitors for 72 hrs.” left out
as §2, with “[…],” for “seeded in 96-well plates at a density of 2×10^3 cells/well and treated with DMSO,”, “and 100 μM of individual STAT3 inhibitors for 72 h.” left out

MDA-MB-231 = test: MTS cell proliferation assay, MDA-MB-231; format: cell-based, human; conditions: Homo sapiens
Protocol: as §1, with “Calif.).” for “Calif.). Each individual compound was tested in quadruplicate wells for each concentration, and the results were reported as mean absorption±s.e.”
as §2, with “concentration. […]” for “concentration.”

BxPc-3H = test: MTS cell proliferation assay, BxPc-3H; format: cell-based; conditions: Homo sapiens; pancreatic cancer, 72 hrs; >10 = no effect; read-out: IC50 BxPc-3H (Table 1)
Protocol: as §1

SKBR3 = test: MTS cell proliferation assay, SKBR3; format: cell-based; conditions: Homo sapiens, SK-BR-3; ER-negative breast cancer, 72 hrs; >10 = no effect; read-out: IC50 SKBR3 (Table 1)
Protocol: as §1

MDA-MB-361 = test: MTS cell proliferation assay, MDA-MB-361; format: cell-based; conditions: Homo sapiens, ER-positive breast cancer, 72 hrs, >10 = no effect, read-out: IC50 MDA-MB-361 (Table 1)
Protocol: as §1

[1] = PANC-1, Example 4 numbering, 72 h, >10 = no effect, read-out: IC50 Panc-1 (Table 4)
[2] = ASPC1, Example 4 numbering, 72 h, >10 = no effect, read-out: IC50 AsPC1 (Table 4)
[3] = Homo sapiens, MCF7; Example 4 numbering, 72 h; >10 = no effect; read-out: IC50 MCF-7 (Table 4)
[4] = MDA-MB-231, Example 4 numbering, 72 h, >10 = no effect, read-out: IC50 MDA-MB-231 (Table 4)
[5] = PANC-1, Table 2 numbering 1-14, read-out: IC50 Panc-1 (Table 2)
[6] = ASPC1, Table 2 numbering 1-14, read-out: IC50 AsPC1 (Table 2)
[7] = Homo sapiens, MCF7; Table 2 numbering 1-14; >10 = no effect; read-out: IC50 MCF-7 (Table 2)
[8] = MDA-MB-231, Table 2 numbering 1-14, >10 = no effect, read-out: IC50 MDA-MB-231 (Table 2)
[9] = PANC-1, 72 h, read-out: IC50 Panc-1 (Table 1)
[10] = ASPC1, 72 h, read-out: IC50 AsPC1 (Table 1)
[11] = Homo sapiens, MCF7, 72 h, read-out: IC50 MCF-7 (Table 1)
[12] = MDA-MB-231, 72 h, read-out: IC50 MDA-MB-231 (Table 1)
[13] = PANC-1, pancreatic cancer, 72 hrs, >10 = no effect, read-out: IC50 Panc-1 (Table 1)
[14] = ASPC1, pancreatic cancer, 72 hrs, >10 = no effect, read-out: IC50 AsPC1 (Table 1)
[15] = Homo sapiens, MCF7, 72 h; read-out: IC50 MCF-7 (Table 1)
[16] = MCF-7, 48 hr, μM concentrations
[17] = MDA-MB-231, ER-negative breast cancer, 72 hrs, >10 = no effect, read-out: IC50 MDA-MB-231 (Table 1)

With O=C(Nc1ccc2c(c1)S(=O)(=O)C=C2)c1cc(Cl)ccc1O [Compd 12] the IC50 (Panc-1; [1]) was 2.34 µM, the IC50 (AsPC1; [2]) was 1.92 µM and the IC50 (MCF-7; [3]) was 0.91 µM. For the same compound, the IC50 (MDA-MB-231; [4]) was 1.64 µM.
With O=C(Nc1ccc2c(c1)S(=O)(=O)C=C2)c1cc(Cl)ccc1O [Compound 1] the IC50 (Panc-1; [5]) was 2.34 µM, the IC50 (AsPC1; [6]) was 1.92 µM and the IC50 (MCF-7; [7]) was 0.91 µM. The IC50 (MDA-MB-231; [8]) was 1.64 µM.
C[C@H](NC(=O)c1cc(-c2ccccc2)nc2ccccc12)c1ccccc1 [Compound 8] was tested, and the IC50 (Panc-1; [1]) was over 10 µM, the IC50 (AsPC1; [2]) was over 10 µM and the IC50 (MCF-7; [3]) was 2.24 µM. It also gave an IC50 (MDA-MB-231; [4]) of 86 µM.
C[C@H](NC(=O)c1cc(Cl)ccc1O)c1ccccc1 [Compound 9] gave an IC50 (Panc-1; [1]) of 8.44 µM, an IC50 (AsPC1; [2]) of 7.54 µM and an IC50 (MCF-7; [3]) of 0.9 µM. The IC50 (MCF-7; Homo sapiens, MCF7; Example 4 numbering; read-out: IC50 MCF-7 (Example 4)) was 0.9 µM and the IC50 (MDA-MB-231; [4]) was 8.88 µM.
Work on N#C/C(=C\c1cccc(Br)n1)C(=O)Nc1ccc2c(c1)S(=O)(=O)C=C2 [Compound 10] yielded an IC50 (Panc-1; [1]) of 1.64 µM, an IC50 (AsPC1; [2]) of 1.54 µM and an IC50 (MCF-7; [3]) of 3.31 µM. For the same compound, the IC50 (MDA-MB-231; [4]) was 1.53 µM.
COC1CS(=O)(=O)c2cc(NC(=O)c3cc(Cl)ccc3O)ccc21 (centres unmarked) [Compound 14] gave an IC50 (Panc-1; [5]) of 8.39 µM, an IC50 (AsPC1; [6]) of 8.46 µM and an IC50 (MCF-7; [7]) of 6.07 µM. For the same compound, the IC50 (MDA-MB-231; [8]) was 7.05 µM.
Compound O=C(Nc1ccc([N+](=O)[O-])cc1Cl)c1cc(Cl)ccc1OCCN1CCOCC1 [HJC-1-14, 5-Chloro-N-(2-chloro-4-nitro-phenyl)-2-(2-morpholin-4-yl-ethoxy)benzamide] has an IC50 (Panc-1; [9]) of over 10 µM, an IC50 (BxPc-3H) of over 10 µM and an IC50 (SKBR3) of 5.1 µM. The IC50 (AsPC1; [10]) was 73.2 µM, the IC50 (MCF-7; [11]) was 9.87 µM and the IC50 (MDA-MB-361) was 12.6 µM. The IC50 (MDA-MB-231; [12]) was 17.9 µM.
Work on O=C(Nc1ccc([N+](=O)[O-])cc1Cl)c1cc(-c2ccccc2)nc2ccccc12 [HJC-1-17, 2-Phenyl-quinoline-4-carboxylic acid (2-chloro-4-nitro-phenyl)amide] yielded an IC50 (Panc-1; [9]) of over 10 µM, an IC50 (BxPc-3H) of over 10 µM and an IC50 (SKBR3) of over 10 µM. For the same compound, the IC50 (AsPC1; [10]) was over 10 µM, the IC50 (MCF-7; [11]) was 15.9 µM and the IC50 (MDA-MB-361) was 17.4 µM. The IC50 (MDA-MB-231; [12]) was over 10 µM.
For NCCCOc1ccc(Cl)cc1C(=O)Nc1ccc([N+](=O)[O-])cc1Cl [HJC-3-8, 2-(3-Aminopropoxy)-5-chloro-N-(2-chloro-4-nitrophenyl)benzamide], the IC50 (Panc-1; [13]) was 3.11 µM, the IC50 (AsPC1; [14]) was 4.2 µM and the IC50 (MCF-7; [15]) was 3.11 µM. For the same compound, the “inhibition on breast cancer cell proliferation (FIG. 1)” value (shortened to “inhibition”) (MCF-7; [16]) was “significant inhibition” and the IC50 (MDA-MB-231; [17]) was 2.61 µM.
Cc1ccc(S(=O)(=O)Nc2ccc3c(c2)S(=O)(=O)C=C3)cc1 [HJC-3-70, N-(1,1-Dioxo-1H-1λ^6-benzo[b]thiophen-6-yl)-4-methylbenzenesulfonamide] showed an IC50 (Panc-1; [13]) of 2.89 µM, an IC50 (AsPC1; [14]) of 1.92 µM and an IC50 (MCF-7; [15]) of 3.24 µM. The IC50 (MDA-MB-231; [17]) was 2.66 µM.
N#C/C(=C\c1cccc(Br)n1)C(=O)Nc1ccc2c(c1)S(=O)(=O)C=C2 [HJC-3-71, 3-(6-Bromo-pyridin-2-yl)-2-cyano-N-(1,1-dioxo-1H-1λ^6-benzo[b]thiophen-6-yl)-acrylamide] was tested, and the IC50 (Panc-1; [13]) was 1.64 µM, the IC50 (AsPC1; [14]) was 1.54 µM and the IC50 (MCF-7; [15]) was 3.31 µM. The “inhibition” value (MCF-7; [16]) was “significant inhibition” and the IC50 (MDA-MB-231; [17]) was 1.53 µM.
NCCCCCOc1ccc(Cl)cc1C(=O)Nc1ccc([N+](=O)[O-])cc1Cl [HJC-3-89, 2-(5-Amino-pentyloxy)-5-chloro-N-(2-chloro-4-nitro-phenyl)benzamide] showed an IC50 (Panc-1; [13]) of 4.67 µM, an IC50 (AsPC1; [14]) of 2.08 µM and an IC50 (MCF-7; [15]) of 3.49 µM. For the same compound, the “inhibition” value (MCF-7; [16]) was “significant inhibition” and the IC50 (MDA-MB-231; [17]) was 3.1 µM.
With O=C(Nc1ccc2c(c1)S(=O)(=O)C=C2)c1cc(Cl)ccc1OCCN1CCNCC1 [HJC-4-13, 5-Chloro-N-(1,1-dioxo-1H-1λ^6-benzo[b]thiophen-6-yl)-2-(2-piperazin-1-yl-ethoxy) benzamide] the IC50 (Panc-1; [13]) was 3.69 µM, the IC50 (AsPC1; [14]) was 1.87 µM and the IC50 (MCF-7; [15]) was 2.56 µM. It also gave an IC50 (MDA-MB-231; [17]) of 3.29 µM.
NCCCOc1ccc(Cl)cc1C(=O)Nc1ccc2c(c1)S(=O)(=O)C=C2 [HJC-4-16, 2-(3-Aminopropoxy)-5-chloro-N-(1,1-dioxo-1H-1λ^6-benzo[b]thiophen-6-yl)benzamide] gave an IC50 (Panc-1; [13]) of 1.88 µM, an IC50 (AsPC1; [14]) of 0.27 µM and an IC50 (MCF-7; [15]) of 1.76 µM. For the same compound, the “inhibition” value (MCF-7; [16]) was “significant inhibition” and the IC50 (MDA-MB-231; [17]) was 1.97 µM.
With CNCCOc1ccc(Cl)cc1C(=O)Nc1ccc2c(c1)S(=O)(=O)C=C2 [HJC-4-28, 5-Chloro-N-(1,1-dioxo-1H-1λ^6-benzo[b]thiophen-6-yl)-2-(2-methylaminoethoxy)benzamide] the IC50 (Panc-1; [13]) was 3.09 µM, the IC50 (AsPC1; [14]) was 2.05 µM and the IC50 (MCF-7; [15]) was 3.15 µM. For the same compound, the “inhibition” value (MCF-7; [16]) was “significant inhibition” and the IC50 (MDA-MB-231; [17]) was 3.12 µM.
With O=C(Nc1ccc2c(c1)S(=O)(=O)C=C2)c1ccnc(-c2ccccc2)c1 [HJC-4-30, N-(1,1-Dioxo-1H-1λ^6-benzo[b]thiophen-6-yl)-2-phenyl-isonicotinamide] the IC50 (Panc-1; [13]) was 3.35 µM, the IC50 (AsPC1; [14]) was 1.3 µM and the IC50 (MCF-7; [15]) was 3.78 µM. The “inhibition” value (MCF-7; [16]) was “significant inhibition” and the IC50 (MDA-MB-231; [17]) was 1.85 µM.
